In patent publication US4238566A (priority 1980, dated 1980) one finds Ki, Vmax with hypoxanthine and Vmax with xanthine data, which are given here for three molecules.

Holding throughout (type): biochemical
Experiment [1] concerns the target T1, Bovine milk xanthine oxidase (E.C. 1.2.3.2.), XO concentrate by prior art 2 (Waud et al. 1975), E280/E450 ratio 4.8 (Bos taurus, UniProt P80457).
T1 construct: Bovine milk XO was purified using three different methods; from tissue; host or cells: bovine milk (purified in-house by the method of Waud et al. 1975)
In words: Kinetic parameters (Km, Vmax, KI) of XO concentrate prepared by prior art method of Waud et al. The conditions noted are these: for Vmax with hypoxanthine / Vmax with xanthine: XO by prior art 2. As to the method: (§1) Bovine milk XO was purified using three different methods and the purified XO enzyme concentrate preparation from each method was assayed for its kinetic parameters.
(§2) The first method used was that of Horecker and Heppel (Methods in Enzymology, Vol. 2, pp. 482-485, 1955). […] The second method was that of Waud et al. (Arch. Biochem. and Biophys., Vol. 169, pp. 695-701, 1975). […] The third method was that described above for the preparation of the XO concentrate of this invention.
(§3) The concentration of the substrate was varied over a gradient of initial concentrations of one to nine millimolar. […] Three replicates of each assay were performed at each concentration of substrate. Buffer pH was monitored constantly and the percent oxygen saturation was maintained at approximately 75%. Lineweaver-Burk and Hanes plots were then constructed from the collected data.
(§4) Lineweaver-Burk and Hanes plots were constructed from the data and both Km and Vmax determined therefrom.
(§5) Experimental conditions for this part of the study were similar to the preceding experiments. […] From the collected data, Lineweaver-Burk plots for competitive inhibition were constructed.

Experiment [2] concerns the target T2, Bovine milk xanthine oxidase (E.C. 1.2.3.2.), XO concentrate by prior art 1 (Horecker and Heppel 1955), E280/E450 ratio 6.1 (Bos taurus, UniProt P80457).
T2 construct: Bovine milk XO was purified using three different methods; from tissue; host or cells: bovine milk (purified in-house by the method of Horecker and Heppel 1955)
In words: Kinetic parameters (Km, Vmax, KI) of XO concentrate prepared by prior art method of Horecker and Heppel. The following applies: for Vmax with hypoxanthine / Vmax with xanthine: XO by prior art 1. On the procedure: as §1, §2, §3, §4, §5

Experiment [3] concerns the target T3, Bovine milk xanthine oxidase (E.C. 1.2.3.2.), XO concentrate of this invention, E280/E450 ratio 2.0 to 4.1 (Bos taurus, UniProt P80457).
T3 construct: Bovine milk XO was purified using three different methods; from tissue; host or cells: bovine milk (purified in-house by the method of the invention)
In words: Kinetic parameters (Km, Vmax, KI) of XO concentrate of this invention. The conditions noted are these: for Vmax with hypoxanthine / Vmax with xanthine: XO of this invention. As to the method: as §1, §2, §3, §4, §5

A word on the Ki: it is a measure of affinity in units of concentration, obtained from inhibition or displacement.

T1 sequence (P80457 whole entry): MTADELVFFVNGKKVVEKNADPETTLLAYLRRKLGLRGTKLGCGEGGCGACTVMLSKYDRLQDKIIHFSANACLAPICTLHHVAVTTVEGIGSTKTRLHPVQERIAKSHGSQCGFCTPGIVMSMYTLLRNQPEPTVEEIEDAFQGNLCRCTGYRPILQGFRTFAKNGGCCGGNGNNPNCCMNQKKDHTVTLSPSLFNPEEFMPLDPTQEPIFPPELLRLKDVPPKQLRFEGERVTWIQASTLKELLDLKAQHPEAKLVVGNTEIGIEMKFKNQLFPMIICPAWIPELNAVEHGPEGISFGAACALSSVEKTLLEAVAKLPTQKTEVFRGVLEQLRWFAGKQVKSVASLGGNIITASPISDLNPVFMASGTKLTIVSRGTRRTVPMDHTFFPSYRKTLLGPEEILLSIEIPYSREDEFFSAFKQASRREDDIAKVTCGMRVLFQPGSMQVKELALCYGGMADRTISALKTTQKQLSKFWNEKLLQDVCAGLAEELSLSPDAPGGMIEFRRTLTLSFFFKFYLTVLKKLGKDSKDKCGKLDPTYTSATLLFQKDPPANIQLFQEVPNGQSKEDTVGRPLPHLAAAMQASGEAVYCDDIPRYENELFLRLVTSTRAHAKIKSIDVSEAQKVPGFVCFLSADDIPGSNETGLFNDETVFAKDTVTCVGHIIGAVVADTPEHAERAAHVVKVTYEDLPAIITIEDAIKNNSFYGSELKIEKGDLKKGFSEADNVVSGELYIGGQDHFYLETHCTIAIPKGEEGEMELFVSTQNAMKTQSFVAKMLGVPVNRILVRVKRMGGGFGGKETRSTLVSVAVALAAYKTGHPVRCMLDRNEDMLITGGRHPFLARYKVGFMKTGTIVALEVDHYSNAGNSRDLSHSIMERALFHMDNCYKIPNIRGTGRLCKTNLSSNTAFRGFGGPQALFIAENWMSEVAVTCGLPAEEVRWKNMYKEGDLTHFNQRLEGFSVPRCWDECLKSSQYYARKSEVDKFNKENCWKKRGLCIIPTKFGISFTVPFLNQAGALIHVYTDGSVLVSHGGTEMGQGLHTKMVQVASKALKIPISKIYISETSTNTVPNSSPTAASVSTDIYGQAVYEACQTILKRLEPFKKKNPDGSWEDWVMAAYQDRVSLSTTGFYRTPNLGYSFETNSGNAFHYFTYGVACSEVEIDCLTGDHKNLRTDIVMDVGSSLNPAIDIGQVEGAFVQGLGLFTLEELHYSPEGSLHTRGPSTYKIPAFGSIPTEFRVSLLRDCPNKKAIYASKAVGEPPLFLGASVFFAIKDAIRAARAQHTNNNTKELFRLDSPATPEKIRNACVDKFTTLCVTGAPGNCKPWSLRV
T2 sequence (P80457 whole entry): as above
T3 sequence (P80457 whole entry): as above

`Nc1nc2ncc(CNc3ccc(C(=O)N[C@@H](CCC(=O)O)C(=O)O)cc3)nc2c(=O)[nH]1` [folic acid]: the figures for the inhibition constant Ki in experiment [1], in experiment [2] and in experiment [3] (read-out: KI with folic acid) were 1.69 µM, 1.79 µM and 1.15 µM, respectively.

For `O=c1[nH]cnc2nc[nH]c12` [hypoxanthine], the Vmax with hypoxanthine in experiment [1] (pH 8.3) was found to be 1.31 I.U; in experiment [1] (pH 8.7), 0.463 I.U; in experiment [2] (pH 8.3), 1.25 I.U; in experiment [2] (pH 8.7), 0.448 I.U; in experiment [3] (pH 8.3), 1.47 I.U; in experiment [3] (pH 8.7) it was 0.666 I.U.

Take `O=c1[nH]c(=O)c2[nH]cnc2[nH]1` [xanthine]: the Vmax with xanthine in experiment [1] (pH 8.3) came out at 2.8 I.U; in experiment [1] (pH 8.7) it was 2.16 I.U; in experiment [2] (pH 8.3), 2.0 I.U; in experiment [2] (pH 8.7) it was 2.03 I.U; in experiment [3] (pH 8.3), 4.76 I.U; in experiment [3] (pH 8.7) it was 3.125 I.U.
